Assay results published in the supplement of paper PMC10307832.

Key:
Experiment in all cases: relative viability (nuclei count vs DMSO), 5 days (fraction); higher = more cells survive
NCI-H1975 = system: NCI-H1975
Summary of the method: (§1)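 Nuclei were stained with Hoechst during a one-step fixation (final 0.05% Triton X-100, 1% formaldehyde, 1 ug/ml Hoechst) carried out 5 days after dosing, then counted on 4× images. The cells, lung cancer lines in 1536-well plates, had been dosed by pin tool the day after seeding with one drug alone or a fixed anchor-drug dose plus five library-drug doses (not always all listed) in √10 steps. Relative viability is the nuclei count in treated wells divided by that in vehicle wells, and each value is the median of duplicate plates.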

NCI-H1944 = system: NCI-H1944
Summary of the method: as §1

NCI-H650 = system: NCI-H650
Summary of the method: as §1

NCI-H2087 = system: NCI-H2087
Summary of the method: as §1

HCC-78 = system: HCC-78
Summary of the method: as §1

NCI-H838 = system: NCI-H838
Summary of the method: as §1

SK-MES-1 = system: SK-MES-1
Summary of the method: as §1

LC-2-ad = system: LC-2-ad
Summary of the method: as §1

PC-3 [JPC-3] = system: PC-3 [JPC-3]
Summary of the method: as §1

NCI-H1651 = system: NCI-H1651
Summary of the method: as §1

BEN = system: BEN
Summary of the method: as §1

LXF-289 = system: LXF-289
Summary of the method: as §1

LCLC-97TM1 = system: LCLC-97TM1
Summary of the method: as §1

NCI-H661 = system: NCI-H661
Summary of the method: as §1

NCI-H1666 = system: NCI-H1666
Summary of the method: as §1

NCI-H358 = system: NCI-H358
Summary of the method: as §1

NCI-H596 = system: NCI-H596
Summary of the method: as §1

LK-2 = system: LK-2
Summary of the method: as §1

NCI-H1355 = system: NCI-H1355
Summary of the method: as §1

LU99A = system: LU99A
Summary of the method: as §1

With `CC(=O)O[C@@]12CO[C@@H]1C[C@H](O)[C@@]1(C)C(=O)[C@H](O)C3=C(C)[C@@H](OC(=O)[C@H](O)[C@@H](NC(=O)OC(C)(C)C)c4ccccc4)C[C@@](O)([C@@H](OC(=O)c4ccccc4)[C@H]21)C3(C)C` [Docetaxel] + CS(=O)(=O)CCNCc1ccc(-c2ccc3ncnc(Nc4ccc(OCc5cccc(F)c5)c(Cl)c4)c3c2)o1 [Lapatinib] (partner 2 µM) the relative viability (NCI-H1975; first compound 0.0002 µM) was 0.884, the relative viability (NCI-H1975; first compound 0.000632 µM) was 0.449 and the relative viability (NCI-H1975; first compound 0.002 µM) was 0.268. For the same compound, the relative viability (NCI-H1975; first compound 0.006325 µM) was 0.175, the relative viability (NCI-H1975; first compound 0.02 µM) was 0.142 and the relative viability (NCI-H1944; first compound 0.0002 µM) was 0.545. It also gave a relative viability (NCI-H1944; first compound 0.000632 µM) of 0.667, a relative viability (NCI-H1944; first compound 0.002 µM) of 0.579 and a relative viability (NCI-H1944; first compound 0.006325 µM) of 0.242. For the same compound, the relative viability (NCI-H1944; first compound 0.02 µM) was 0.112, the relative viability (NCI-H650; first compound 0.0002 µM) was 0.554 and the relative viability (NCI-H650; first compound 0.000632 µM) was 0.384. For the same compound, the relative viability (NCI-H650; first compound 0.002 µM) was 0.307, the relative viability (NCI-H650; first compound 0.02 µM) was 0.168 and the relative viability (NCI-H2087; first compound 0.0002 µM) was 0.831. The relative viability (NCI-H2087; first compound 0.000632 µM) was 0.678, the relative viability (NCI-H2087; first compound 0.002 µM) was 0.351 and the relative viability (NCI-H2087; first compound 0.006325 µM) was 0.269. It also gave a relative viability (NCI-H2087; first compound 0.02 µM) of 0.137, a relative viability (HCC-78; first compound 0.0002 µM) of 0.593 and a relative viability (HCC-78; first compound 0.000632 µM) of 0.634. The relative viability (HCC-78; first compound 0.002 µM) was 0.461, the relative viability (HCC-78; first compound 0.006325 µM) was 0.246 and the relative viability (HCC-78; first compound 0.02 µM) was 0.204. For the same compound, the relative viability (NCI-H838; first compound 0.0002 µM) was 0.963, the relative viability (NCI-H838; first compound 0.000632 µM) was 0.63 and the relative viability (NCI-H838; first compound 0.002 µM) was 0.259. It also gave a relative viability (NCI-H838; first compound 0.006325 µM) of 0.15, a relative viability (NCI-H838; first compound 0.02 µM) of 0.106 and a relative viability (SK-MES-1; first compound 0.0002 µM) of 0.437. For the same compound, the relative viability (SK-MES-1; first compound 0.000632 µM) was 0.633, the relative viability (SK-MES-1; first compound 0.002 µM) was 0.378 and the relative viability (SK-MES-1; first compound 0.02 µM) was 0.159. The relative viability (LC-2-ad; first compound 0.0002 µM) was 0.538, the relative viability (LC-2-ad; first compound 0.000632 µM) was 0.296 and the relative viability (LC-2-ad; first compound 0.002 µM) was 0.14. The relative viability (LC-2-ad; first compound 0.006325 µM) was 0.112, the relative viability (LC-2-ad; first compound 0.02 µM) was 0.0888 and the relative viability (PC-3 [JPC-3]; first compound 0.0002 µM) was 0.44. It also gave a relative viability (PC-3 [JPC-3]; first compound 0.000632 µM) of 0.476, a relative viability (PC-3 [JPC-3]; first compound 0.002 µM) of 0.385 and a relative viability (PC-3 [JPC-3]; first compound 0.006325 µM) of 0.295. It also gave a relative viability (PC-3 [JPC-3]; first compound 0.02 µM) of 0.197, a relative viability (NCI-H1651; first compound 0.0002 µM) of 0.724 and a relative viability (NCI-H1651; first compound 0.000632 µM) of 0.496. The relative viability (NCI-H1651; first compound 0.002 µM) was 0.161, the relative viability (NCI-H1651; first compound 0.006325 µM) was 0.11 and the relative viability (NCI-H1651; first compound 0.02 µM) was 0.101. The relative viability (BEN; first compound 0.0002 µM) was 0.582, the relative viability (BEN; first compound 0.000632 µM) was 0.549 and the relative viability (BEN; first compound 0.002 µM) was 0.233. The relative viability (BEN; first compound 0.006325 µM) was 0.203, the relative viability (BEN; first compound 0.02 µM) was 0.176 and the relative viability (LXF-289; first compound 0.0002 µM) was 0.926. For the same compound, the relative viability (LXF-289; first compound 0.000632 µM) was 0.847, the relative viability (LXF-289; first compound 0.002 µM) was 0.393 and the relative viability (LXF-289; first compound 0.006325 µM) was 0.137. It also gave a relative viability (LXF-289; first compound 0.02 µM) of 0.109, a relative viability (LCLC-97TM1; first compound 0.000632 µM) of 0.865 and a relative viability (LCLC-97TM1; first compound 0.002 µM) of 0.155. The relative viability (LCLC-97TM1; first compound 0.006325 µM) was 0.175, the relative viability (LCLC-97TM1; first compound 0.02 µM) was 0.083 and the relative viability (NCI-H661; first compound 0.0002 µM) was 0.495. It also gave a relative viability (NCI-H661; first compound 0.000632 µM) of 0.516, a relative viability (NCI-H661; first compound 0.002 µM) of 0.4 and a relative viability (NCI-H661; first compound 0.006325 µM) of 0.369. It also gave a relative viability (NCI-H661; first compound 0.02 µM) of 0.245, a relative viability (NCI-H1666; first compound 0.0002 µM) of 0.462 and a relative viability (NCI-H1666; first compound 0.000632 µM) of 0.461. For the same compound, the relative viability (NCI-H1666; first compound 0.002 µM) was 0.299, the relative viability (NCI-H1666; first compound 0.006325 µM) was 0.197 and the relative viability (NCI-H1666; first compound 0.02 µM) was 0.198. For the same compound, the relative viability (NCI-H358; first compound 0.0002 µM) was 0.426, the relative viability (NCI-H358; first compound 0.000632 µM) was 0.357 and the relative viability (NCI-H358; first compound 0.002 µM) was 0.332. For the same compound, the relative viability (NCI-H358; first compound 0.02 µM) was 0.149, the relative viability (NCI-H596; first compound 0.0002 µM) was 0.995 and the relative viability (NCI-H596; first compound 0.000632 µM) was 0.957. The relative viability (NCI-H596; first compound 0.002 µM) was 0.844, the relative viability (NCI-H596; first compound 0.006325 µM) was 0.372 and the relative viability (NCI-H596; first compound 0.02 µM) was 0.35. It also gave a relative viability (LK-2; first compound 0.0002 µM) of 0.843, a relative viability (LK-2; first compound 0.000632 µM) of 0.662 and a relative viability (LK-2; first compound 0.002 µM) of 0.244. It also gave a relative viability (LK-2; first compound 0.006325 µM) of 0.248, a relative viability (LK-2; first compound 0.02 µM) of 0.148 and a relative viability (NCI-H1355; first compound 0.0002 µM) of 0.933. The relative viability (NCI-H1355; first compound 0.000632 µM) was 0.975, the relative viability (NCI-H1355; first compound 0.002 µM) was 0.446 and the relative viability (NCI-H1355; first compound 0.006325 µM) was 0.289. For the same compound, the relative viability (NCI-H1355; first compound 0.02 µM) was 0.21, the relative viability (LU99A; first compound 0.0002 µM) was 0.799 and the relative viability (LU99A; first compound 0.000632 µM) was 0.424. The relative viability (LU99A; first compound 0.002 µM) was 0.423, the relative viability (LU99A; first compound 0.006325 µM) was 0.255 and the relative viability (LU99A; first compound 0.02 µM) was 0.188.
